Read-outs that look alike come from different tables or passages of the source.

This assay has as its target T1, human apelin receptor (Homo sapiens, UniProt P35414).
T1 construct: expressed in transfected cells
T1 sequence (P35414 1-380): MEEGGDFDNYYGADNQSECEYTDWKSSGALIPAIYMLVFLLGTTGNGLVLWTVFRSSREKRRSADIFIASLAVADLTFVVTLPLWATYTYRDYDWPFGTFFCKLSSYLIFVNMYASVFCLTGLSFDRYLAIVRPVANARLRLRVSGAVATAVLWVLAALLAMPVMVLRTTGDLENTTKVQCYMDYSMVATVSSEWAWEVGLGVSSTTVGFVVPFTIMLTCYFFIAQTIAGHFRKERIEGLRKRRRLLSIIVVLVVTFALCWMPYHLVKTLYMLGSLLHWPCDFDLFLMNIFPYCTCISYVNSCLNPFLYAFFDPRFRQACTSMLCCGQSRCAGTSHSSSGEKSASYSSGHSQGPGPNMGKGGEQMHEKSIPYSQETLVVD
The experiment in a line: Determination of agonism on the human apelin receptor by a calcium fluorescence assay (FLIPR). It counts as cell-based. As to conditions: HEK293 cells stably transfected with human apelin receptor and Giaq protein, Fluo-4 calcium fluorescence. The text has this:
Determination of Agonism on the Human Apelin Receptor by a Calcium Fluorescence Assay (FLIPR)
The assay is based on the detection of intracellular calcium changes detected by the selective, calcium-chelating dye Fluo-4 (Molecular Probes). A large fluorescence intensity increase is observed upon calcium association with Fluo-4. The dye is delivered to the cell interior using an acetoxymethylester form of Fluo-4, where the intracellular esterase activity results in the charged species being released and trapped within the cytoplasm of the cell. […] By co-expressing the human apelin receptor and a promiscuous Giaq protein, agonism of the apelin receptor couples to phospholipase-C resulting in intracellular calcium mobilization.
The HEK293 cells were stably transfected with the human apelin receptor and the Giaq protein. Cells were selected and maintained in a log phase of growth at 37° and 5% CO2 in the Iscove's minimal essential medium, 10% fetal calf serum, 1× Penicillin-Streptomycin, 400 μg/mL G418. One day prior the assay, cells were passaged by accutase and plated at a density of 50,000 cells/well onto a 96-well plates with black border but clear bottom (Costar, cat#3904) in a final volume of 200 μl growth medium.
In order to load the cells the next day with the calcium-sensitive dye, growth medium was carefully replaced by dye solution (100 μl/well) containing Fluo-4 (4 μM) in basic measurement buffer (135 mM NaCl, 5 mM KCl, 1 mM magnesium sulphate, 5 mM glucose, 20 mM Hepes, 2.5 mM probenecid; adjusted to pH 7.4). Cells were incubated for 1 h at 37° C., and then washed 3× with buffer containing no dye. The washer was programmed to leave a remaining volume of 150 μl after the third wash in the plate.
During the dye-loading of the cells, a serial compound dilution was performed in a separate 96-well plate with overall 4× increased concentrations. Small aliquots of DMSO stock solutions of the compounds (10 mM in 100% DMSO were aliquoted into 150 μl buffer in the first rows of the 96-well plates, and then serially diluted by a factor of 1:3 transferring each time 30 μl to the next rows already containing 60 μl buffer. All compounds were tested in a least 7 concentrations, each condition was performed in triplicates. As comparator, we used freshly prepared apelin-13 solutions, for which also a concentration-response curve was determined at each measurement day. The compound plate was incubated for 10 min after the final dilutions steps at 37° C. before transferring the dye-loaded cell plate and the compound plate into a FLIPR Tetra reader (Molecular Devices). Measurement within this reader started by pipetting the agonist solution (50 μl) on the cell plate. Overall perform 60 reads were performed with an interval of 2 sec. The maximum of the fluorescence transient was used to calculate the agonistic response of the cells. In order to normalize this response, which may vary from plate to plate we set the maximum fluorescence achieved by 1 μM apelin-13 on this plate as 100%.
EC-50 values for apelin-13 and the apelin receptor compounds described in this patent were determined by standard algorithms using a specific software package.

In the case of `CC(C)CC(C)n1c(Cc2cccs2)nc2cc(C(=O)N[C@@H](CC(C)C)C(=O)O)ccc21` (stereo partly drawn) [Example 166, (S)-2-{[1-(1,3-Dimethyl-butyl)-2-thiophen-2-ylmethyl-1H-benzoimidazole-5-carbonyl]-amino}-4-methyl-pentanoic acid], the EC50 (in general, the concentration needed to bring the measured effect to its halfway point) (read-out: EC50 (APJ agonism)) is 3.04 µM.

Take `CCC(CC)n1c(Cc2cccs2)nc2cc(C(=O)N[C@@H](CC(C)C)C(=O)N3CCN(c4ccccc4)CC3)ccc21` [Example 235, 1-(1-Ethyl-propyl)-2-thiophen-2-ylmethyl-1H-benzoimidazole-5-carboxylic acid [(S)-3-methyl-1-(4-phenyl-piperazine-1-carbonyl)-butyl]-amide]: the half-maximal effective concentration (EC50) (read-out: EC50 (APJ agonism)) worked out at 1.3 µM.

For `CC(C)C[C@H](NC(=O)c1ccc2c(c1)nc(Cc1cccs1)n2C1CCCC1C)C(=O)O` (stereo partly drawn) [Example 90, (S)-4-Methyl-2-{[1-(2-methyl-cyclopentyl)-2-thiophen-2-ylmethyl-1H-benzoimidazole-5-carbonyl]-amino}-pentanoic acid], for the setting “read-out: EC50 (APJ agonism)”, the EC50 is 0.472 µM.

On to `CCC(CC)n1c(Cc2cccs2)nc2cc(C(=O)N[C@@H](CC(C)C)C(=O)NC3CCC3)ccc21` [Example 215, 1-(1-Ethyl-propyl)-2-thiophen-2-ylmethyl-1H-benzoimidazole-5-carboxylic acid ((S)-1-cyclobutylcarbamoyl-3-methyl-butyl)-amide], for which, where the note is “read-out: EC50 (APJ agonism)”, the EC50 was determined as 1.45 µM.

As for `CCC(C)Cn1c(Cc2cccs2)nc2cc(C(=O)N[C@@H](CC(C)C)C(=O)O)ccc21` (stereo partly drawn) [Example 113, (S)-4-Methyl-2-{[1-(2-methyl-butyl)-2-thiophen-2-ylmethyl-1H-benzoimidazole-5-carbonyl]-amino}-pentanoic acid], the EC50 (read-out: EC50 (APJ agonism)) came to 21.7 µM.

As for `C[C@@H]1CCCC[C@H]1n1c(Cc2cccs2)nc2cc(C(=O)NC(CC3CCCC3)C(=O)O)ccc21` (single isomer, unassigned) [Example 443], the EC50 (read-out: EC50 (APJ agonism)) came out at 1.45 µM.

As to `CCC(CC)n1c(Cc2cccs2)nc2cc(C(=O)N[C@@H](Cc3ccc(Cl)cc3)C(=O)O)ccc21` [Example 20, (S)-3-(4-Chloro-phenyl)-2-{[1-(1-ethyl-propyl)-2-thiophen-2-ylmethyl-1H-benzoimidazole-5-carbonyl]-amino}-propionic acid], the EC50 (read-out: EC50 (APJ agonism)) came out at 1.83 µM.

Regarding `CCCCC(CC(=O)O)NC(=O)c1ccc2c(c1)nc(Cc1cccs1)n2[C@@H]1CCCC[C@H]1C` (stereo partly drawn) [Example 56, 3-{[1-((1R,2R)-2-Methyl-cyclohexyl)-2-thiophen-2-ylmethyl-1H-benzoimidazole-5-carbonyl]-amino}-heptanoic acid], the EC50 (read-out: EC50 (APJ agonism)) came to 0.157 µM.

`CCC(CC)n1c(Cc2cccs2)nc2cc(C(=O)NC(CC(C)C)c3nccs3)ccc21` (centres unmarked) [Example 479, 1-(1-Ethyl-propyl)-2-thiophen-2-ylmethyl-1H-benzoimidazole-5-carboxylic acid (3-methyl-1-thiazol-2-yl-butyl)-amide]: under “read-out: EC50 (APJ agonism)”, the EC50 worked out at 16.9 µM.

As to `CCC(CC)n1c(Cc2cccs2)nc2cc(C(=O)N[C@@H](CC(C)C)C(=O)NCCCN3CCC(Cc4ccccc4)CC3)ccc21` [Example 346, 1-(1-Ethyl-propyl)-2-thiophen-2-ylmethyl-1H-benzoimidazole-5-carboxylic acid {(S)-1-[3-(4-benzyl-piperidin-1-yl)-propylcarbamoyl]-3-methyl-butyl}-amide], the EC50 (read-out: EC50 (APJ agonism)) came out at 1.32 µM.

As for `CCC(CC)n1c(Cc2cccs2)nc2cc(C(=O)N[C@@H](CC(C)C)C(=O)NC3CCN(CCc4ccccc4)CC3)ccc21` [Example 338, 1-(1-Ethyl-propyl)-2-thiophen-2-ylmethyl-1H-benzoimidazole-5-carboxylic acid [(S)-3-methyl-1-(1-phenethyl-piperidin-4-ylcarbamoyl)-butyl]-amide], the EC50 (read-out: EC50 (APJ agonism)) amounted to 1.59 µM.

`CCCOCCNC(=O)[C@H](CC(C)C)NC(=O)c1ccc2c(c1)nc(Cc1cccs1)n2C(CC)CC` [Example 385, 1-(1-Ethyl-propyl)-2-thiophen-2-ylmethyl-1H-benzoimidazole-5-carboxylic acid [(S)-3-methyl-1-(2-propoxy-ethylcarbamoyl)-butyl]-amide]: the EC50 (read-out: EC50 (APJ agonism)) amounted to 2.51 µM.

On to `CCC(CC)n1c(CC2CCCC2)nc2cc(C(=O)N[C@H](CC3CCCCC3)C(=O)O)ccc21` [Example 10, (R)-3-Cyclohexyl-2-[{2-cyclopentylmethyl-1-(1-ethyl-propyl)-1H-benzoimidazole-5-carbonyl]-amino}-propionic acid], for which the EC50 (read-out: EC50 (APJ agonism)) stood at 1.7 µM.

As for `CC1CCCCC1n1c(Cc2cccs2)nc2cc(C(=O)N[C@@H](CC3CCCCC3)C(=O)O)ccc21` (stereo partly drawn) [Example 15, (S)-3-Cyclohexyl-2-{[1-(2-methyl-cyclohexyl)-2-thiophen-2-ylmethyl-1H-benzoimidazole-5-carbonyl]-amino}-propionic acid], the EC50 (read-out: EC50 (APJ agonism)) is 0.254 µM.

For the molecule `CCC(CC)n1c(Cc2cccs2)nc2cc(C(=O)NC3(C(=O)O)CCCCC3)ccc21` [Example 24, 1-{[1-(1-Ethyl-propyl)-2-thiophen-2-ylmethyl-1H-benzoimidazole-5-carbonyl]-amino}-cyclohexanecarboxylic acid], where the note is “read-out: EC50 (APJ agonism)”, the EC50 is 0.219 µM.

As for `CCCCC(CO)NC(=O)c1ccc2c(c1)nc(CC1CCCC1)n2C(CC)CC` (centres unmarked) [Example 182, 2-Cyclopentylmethyl-1-(1-ethyl-propyl)-1H-benzoimidazole-5-carboxylic acid (1-hydroxymethyl-pentyl)-amide], the EC50 (EC50 (APJ agonism)) was 11 µM.

As to `CCC(CC)n1c(Cc2cccs2)nc2cc(C(=O)NC(CC(=O)O)CC3CCCCC3)ccc21` (single isomer, unassigned) [Example 454], the EC50 (read-out: EC50 (APJ agonism)) amounted to 0.126 µM.

As to `CCC(CC)n1c(Cc2cccs2)nc2cc(C(=O)N[C@@H](CC(C)C)C(=O)NCc3nnn[nH]3)ccc21` [Example 399, 1-(1-Ethyl-propyl)-2-thiophen-2-ylmethyl-1H-benzoimidazole-5-carboxylic acid {(S)-3-methyl-1-[(1H-tetrazol-5-ylmethyl)-carbamoyl]-butyl}-amide], the EC50 (read-out: EC50 (APJ agonism)) came out at 0.099 µM.

Regarding `CCC(CC)n1c(Cc2cccs2)nc2cc(C(=O)N[C@@H](CC(C)C)C(=O)N(C)CC3CCCCO3)ccc21` (stereo partly drawn) [Example 395, 1-(1-Ethyl-propyl)-2-thiophen-2-ylmethyl-1H-benzoimidazole-5-carboxylic acid {(S)-3-methyl-1-[methyl-(tetrahydro-pyran-2-ylmethyl)-carbamoyl]-butyl}-amide], the EC50 (read-out: EC50 (APJ agonism)) stood at 1.76 µM.

`CCC(CC)n1c(Cc2cccs2)nc2cc(C(=O)N[C@@H](CC(C)C)C(=O)NCCOC)ccc21` [Example 268, 1-(1-Ethyl-propyl)-2-thiophen-2-ylmethyl-1H-benzoimidazole-5-carboxylic acid [(S)-1-(2-methoxy-ethylcarbamoyl)-3-methyl-butyl]-amide]: under “read-out: EC50 (APJ agonism)”, the EC50 stood at 0.552 µM.

Regarding `CCC(CC)n1c(Cc2cccs2)nc2cc(C(=O)N[C@@H](CC(C)C)C(=O)N3CCN(C4CCCC4)CC3)ccc21` [Example 321, 1-(1-Ethyl-propyl)-2-thiophen-2-ylmethyl-1H-benzoimidazole-5-carboxylic acid [(S)-1-(4-cyclopentyl-piperazine-1-carbonyl)-3-methyl-butyl]-amide], the EC50 (read-out: EC50 (APJ agonism)) amounted to 1.53 µM.

Turning to `CC(C)C[C@H](NC(=O)c1ccc2c(c1)nc(Cc1cccs1)n2C1CCCCC1)C(N)=O` [Example 168, 1-Cyclohexyl-2-thiophen-2-ylmethyl-1H-benzoimidazole-5-carboxylic acid ((S)-1-carbamoyl-3-methyl-butyl)-amide], the EC50 (read-out: EC50 (APJ agonism)) was found to be 4.53 µM.

Consider `CCC(CC)n1c(CC2CCCC2)nc2cc(C(=O)NC(CC(C)C)C(N)=O)ccc21` (centres unmarked) [Example 169, 2-Cyclopentylmethyl-1-(1-ethyl-propyl)-1H-benzoimidazole-5-carboxylic acid (1-carbamoyl-3-methyl-butyl)-amide], for which, for the setting “read-out: EC50 (APJ agonism)”, the EC50 amounted to 6.65 µM.
